Experiments:
[1] = system: T. b. brucei procyclic trypanosomes (Lab 110 EATRO strain); experiment: In vitro antitrypanosomal activity, procyclic trypanosomes in T2 medium; assay type: cell-based, Trypanosoma brucei brucei; settings: Trypanosoma brucei, 3-5 days
Method: The antitrypanosomal effects of HETA and other nucleosides were examined in the Lab 110 EATRO strain of T. b. brucei in culture.
Cells were cultured as described in Bacchi et al. Exp. Parasitol. 68, 392, 1989. Cells were then grown in the presence of the compounds for 3-5 days. Drugs were filtered, sterilized and added aseptically. Control cells achieved a maximum density of 1.5-3.5×10^7 /ml. Hemocytometer counts were made daily and the results were expressed as a percent of control growth. IC50 plots were obtained by graphing log (drug) vs. percent growth inhibition.
Trypanocidal Activity of MTA and MTR Analogs
against T. b. brucei procyclic trypanosomes in T2 medium.

[2] = system: L1210 cells (MTA phosphorylase-deficient); experiment: Growth inhibition of L1210 cells; assay type: cell-based, mouse; settings: Mus musculus, L1210, 48 h
Method: (§1) L1210, L5178Y and MOLT-4 cell lines were grown in RPMI 1640 and 10% Nu Serum (Collaborative Research Inc., Lexington, Mass.) and CCRF-CEM cells were grown in 10% Horse Serum (Gibco Laboratories, Grand Island, N.Y.) and maintained as previously described for suspension cultures by Pera et al. in Cancer Res. 46, 1148, 1986. Cell cultures (0.3×10^5 cells/ml) were treated with each compound at 0.1 to 1000 μM to determine the concentration that inhibited growth by 50% (IC50) at 48 hr for the L1210 and L5178Y cells and at 96 hr for the CCRF-CEM and MOLT-4 cells. The incubation times allowed approximately 4 cell doublings in each cell line. All compounds were freshly prepared prior to treatment by dissolving in DMSO and diluting in serum-free media. Cells were counted by electron particle counting (Model XF' Coulter Counter; Coulter Electronics, Hialeah, Fla.).
(§2) For each compound, the concentrations required to inhibit cell growth by 50% (IC50 values) are shown in Table 7 for two murine leukemic cell lines, L1210 and L5178Y [MTA phosphorylase-deficient and MTA phosphorylase-containing, respectively] and two human leukemic cell lines, CCRF-CEM and MOLT-4 [MTA phosphorylase-deficient and MTA phosphorylase-containing, respectively]. ETA, MFETA, HETA and PTA had lower IC50 values in the L5178Y cells than in the L1210 cells. […] This differential is consistent with the possibility that, in L5178Y cells, MFETA is cleaved by MTA phosphorylase to the growth inhibitory metabolite, 5-monofluoroethylthioribose-1-phosphate (MFETR-1-P).

[3] = system: L5178Y cells (MTA phosphorylase-containing); experiment: Growth inhibition of L5178Y cells; assay type: cell-based, mouse; settings: Mus musculus, 48 h
Method: as §1, §2

[4] = system: CCRF-CEM cells (MTA phosphorylase-deficient); experiment: Growth inhibition of CCRF-CEM cells; assay type: cell-based, human; settings: Homo sapiens, 96 h
Method: as §1, §2

[5] = system: L5178Y leukemic cells; experiment: Antitumor effects in L5178Y leukemic mice; assay type: in vivo, DBA/2N mice
Method: The antitumor effects of MFETA were evaluated in DBA/2N mice (Charles River) who received i.p. transplants of 10^6 L1210 leukemic cells or 10^6 L5178Y leukemic cells on day 0 according to protocols described previously by Bernacki et al., Cancer Res. 47, 799, 1987. The increase in life span (% ILS) of treated animals relative to untreated, tumor-bearing animals was used as the measure of their therapeutic effectiveness at specified dose regimens.
^a MFETA was administered i.p. on days 1, 2, 3, 4, 5 following i.p.
implantation of 10^6 tumor cells on day 0.
^b % ILS is the percentage of increase in life span.

[6] = system: A121 (human ovarian carcinoma); experiment: In vitro evaluation, A121; assay type: cell-based; settings: A121, medium B, 72 hours, solvent DMSO
Method: (§3) In vitro evaluations of the compound 5'-deoxy-5'-(monofluoroethylthio) adenosine (MFETA) were performed using the materials and conditions described in Tables 9 and 10.
(§4) (a) Basal medium + RPMI 1640 + 20 mM HEPES;
(§5) B--5% NuSerum IV + 5% FCS,
(§6) *Incubation or exposure time is determined by the doubling time of the
(§7) cell line such that each is exposed to the compound for 3-4 cell

[7] = system: MCF7 (human breast carcinoma); experiment: In vitro evaluation, MCF7; assay type: cell-based; settings: MCF7, medium B, 72 hours, solvent DMSO
Method: as §3, §4, §5, §6, §7

[8] = system: HT-29 (human colon carcinoma); experiment: In vitro evaluation, HT-29; assay type: cell-based; settings: HT-29, medium B, 96 hours, solvent DMSO
Method: as §3, §4, §5, §6, §7

[9] = system: PSN-1 (human pancreatic carcinoma); experiment: In vitro evaluation, PSN-1; assay type: cell-based; settings: PSN1, PSN-1, medium C, 72 hours, solvent DMSO
Method: as §3, §4, §5, §6, §7

[10] = system: HO (human melanoma); experiment: In vitro evaluation, HO; assay type: cell-based; settings: medium B, 72 hours
Method: as §3
(§8) ^(a) Basal medium = RPMI 1640 + 20 mM HEPES + 2 mM Lglutamine
(§9) B = 5% FCS + 5% NuSerum IV

[11] = system: PANuT (human melanoma); experiment: In vitro evaluation, PANuT; assay type: cell-based; settings: medium B, 72 hours
Method: as §3, §8, §9

[12] = system: SH-1 (human melanoma); experiment: In vitro evaluation, SH-1; assay type: cell-based; settings: SH-1, medium B, 72 hours
Method: as §3, §8, §9

Nc1ncnc2c1ncn2[C@@H]1O[C@H](CSCCF)[C@@H](O)[C@H]1O [MFETA, 5'-deoxy-5'-(monofluoroethylthio)adenosine]
IC50 [1]: 5 µM | IC50 [2]: 150 ± 50 µM | IC50 [3]: 60 ± 35 µM | IC50 [4]: 75 ± 20 µM | % ILS (percentage of increase in life span) ([5]; 10 mg/kg i.p. days 1-5): 12% | Mean Death Weight ([5]; 10 mg/kg i.p. days 1-5): 19.7 g | Survival Mean ± SD ([5]; 10 mg/kg i.p. days 1-5): 9.0 ± 3 days | Survival Median ([5]; 10 mg/kg i.p. days 1-5): 9 days | Survival Range ([5]; 10 mg/kg i.p. days 1-5): 8 to 10 days | % ILS (percentage of increase in life span) ([5]; 50 mg/kg i.p. days 1-5): 37% | Mean Death Weight ([5]; 50 mg/kg i.p. days 1-5): 21.6 g | Survival Mean ± SD ([5]; 50 mg/kg i.p. days 1-5): 10.0 ± 6 days | Survival Median ([5]; 50 mg/kg i.p. days 1-5): 11 days | Survival Range ([5]; 50 mg/kg i.p. days 1-5): 8 to 11 days | % ILS (percentage of increase in life span) ([5]; 100 mg/kg i.p. days 1-5): 37% | Mean Death Weight ([5]; 100 mg/kg i.p. days 1-5): 23.1 g | Survival Mean ± SD ([5]; 100 mg/kg i.p. days 1-5): 10.5 ± 4 days | Survival Median ([5]; 100 mg/kg i.p. days 1-5): 11 days | Survival Range ([5]; 100 mg/kg i.p. days 1-5): 8 to 12 days | % ILS (percentage of increase in life span) ([5]; 200 mg/kg i.p. days 1-5): 62% | Mean Death Weight ([5]; 200 mg/kg i.p. days 1-5): 20.4 g | Survival Mean ± SD ([5]; 200 mg/kg i.p. days 1-5): 12.4 ± 9 days | Survival Median ([5]; 200 mg/kg i.p. days 1-5): 13 days | Survival Range ([5]; 200 mg/kg i.p. days 1-5): 9 to 14 days | % ILS (percentage of increase in life span) ([5]; 300 mg/kg i.p. days 1-5): -75% | Mean Death Weight ([5]; 300 mg/kg i.p. days 1-5): 18.4 g | Survival Mean ± SD ([5]; 300 mg/kg i.p. days 1-5): 2.6 ± 4 days | Survival Median ([5]; 300 mg/kg i.p. days 1-5): 2 days | Survival Range ([5]; 300 mg/kg i.p. days 1-5): 2 to 4 days | IC50 [6]: 269 µM | IC50 [7]: 337 µM | IC50 [8]: 259 µM | IC50 [9]: 175 µM | IC50 [10]: 333 ± 5.9 µM | IC50 [11]: 160 ± 8.1 µM | IC50 [12]: 319 ± 10 µM

— US5563125A, “5'-deoxy-5'-(substituted)alkylthioribose compounds and their pharmaceutical compositions” (priority 1992, dated 1996)
